{
  "source": "patent US20240226071A9",
  "about": "“SUSTAINED RELEASE OSMOTIC-CONTROLLED PHARMACEUTICAL COMPOSITION AND PREPARATION METHOD THEREOF” (Anxo Pharmaceutical Co., Ltd., priority 2022, published 2024)",
  "origin": "cited, not measured here",
  "data": [
    {"smiles": "O=C1[C@@H]2[C@H]3CC[C@H](C3)[C@@H]2C(=O)N1C[C@@H]1CCCC[C@H]1CN1CCN(c2nsc3ccccc23)CC1", "note": "[lurasidone]", "values": [
      {"measurement": "solubility in water", "result": "lower than 0.1 mg/mL"}
    ]}
  ]
}
